The values that follow come from US20060242728A1, “Chemically-inducible promotors for the expression of proteins in plants” (priority 2003, published 2006).

One assay deals with NIMIN promoters. Kind of assay: GUS reporter gene activity in leaf discs incubated with different salicylic acid concentrations. The format is cell-based, Arabidopsis thaliana. The settings on record: leaf discs of NIMIN1-GUS and NIMIN2-GUS lines; FIGS. 4 and 5. The method, then:
(§1) For characterizing the influence of chemicals on the activity of the NIMIN promoters, leaf discs were punched from the transgenic lines NIMIN1-GUS and NIMIN2-GUS. As a control, PR-1a promoter fusions were used. The leaf discs were floated on 1 mM SA, 140 mg/l Bion (a functional analogue to salicylic acid) or water. After 3 days, protein extracts were prepared and the activity of the GUS reporter gene in the extracts was assayed. The resulting reporter gene activities were 5 times higher In the NIMIN-2 promoter fusions than In PR-1a promoter fusions (cf. FIG. 3). Further, leaf discs from the transgenic lines NIMIN1-GUS and NIMIN2-GUS were incubated with different salicylic acid concentrations.

Another assay has as its system NIMIN-1 mRNA. The note with it: cited from earlier work.
For a further assay, the system named is NIMIN-2 mRNA. The settings on record: cited from earlier work.
In a further assay the test system is NIMIN-2 promoter. Kind of assay: GUS reporter gene activity in leaf discs of transgenic lines floated on inducer. The note with it: leaf discs floated on 1 mM SA or 140 mg/l Bion, 3 days, protein extracts; FIG. 3. The format is cell-based, Arabidopsis thaliana. As to the method:
as §1

Turning to `O=C(O)c1ccccc1O` [salicylic acid], the “activity of the NIMIN promoters versus inducer concentration” value in the assay on NIMIN promoters is reported as “depends on the salicyclic acid concentration”. Also, the “inducibility of NIMIN-1 mRNA” value in the assay on NIMIN-1 mRNA is reported as “inducible”. In addition, the “inducibility of NIMIN-2 mRNA” value in the assay on NIMIN-2 mRNA is recorded as “inducible”. The “reporter gene (GUS) activity in NIMIN-2 promoter fusions relative to PR-1a promoter fusions” value in the assay with NIMIN-2 promoter turned out to be 5 times.
`CSC(=O)c1cccc2nnsc12` [Bion]: in the assay with NIMIN-1 mRNA, the “inducibility of NIMIN-1 mRNA” value is on record as “inducible”. In addition, in the assay on NIMIN-2 mRNA, the “inducibility of NIMIN-2 mRNA” value is reported as “inducible”. In the assay on NIMIN-2 promoter, the “reporter gene (GUS) activity in NIMIN-2 promoter fusions relative to PR-1a promoter fusions” value is on record as 5 times.
